Experimental data taken from ChEMBL document CHEMBL1201862, “PubChem BioAssay data set” (2004).
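Following 48 hours of exposure in 96-well plates, responses at five concentrations were used to interpolate endpoints linearly. Abbreviation: GI50, concentration required for 50% inhibition of growth.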 Calls of active or inactive are those of the source. Rule as the data show it: active = GI50 up to about 1.1 µM and inactive = higher.

Legend:
Experiment in all cases: DTP human tumour cell line panel, 48 h
UACC-257 = tested on: UACC-257
OVCAR-4 = tested on: OVCAR-4
NCI-H23 = tested on: NCI-H23
SF-268 = tested on: SF-268
K562 = tested on: K562
OVCAR-8 = tested on: OVCAR-8
HL-60 = tested on: HL-60
SF-295 = tested on: SF-295
U-251 = tested on: U-251
HCC 2998 = tested on: HCC 2998
LOX IMVI = tested on: LOX IMVI
SNB-75 = tested on: SNB-75
EKVX = tested on: EKVX
OVCAR-3 = tested on: OVCAR-3
UO-31 = tested on: UO-31
RPMI-8226 = tested on: RPMI-8226
TK-10 = tested on: TK-10
COLO 205 = tested on: COLO 205
MDA-N = tested on: MDA-N

Measured: GI50

COc1ccc(C(=O)Cc2ccc(Br)cc2)cc1OC
inactive: UACC-257 > 100 µM | OVCAR-4 > 100 µM | NCI-H23 > 100 µM | SF-268 > 100 µM | K562 > 100 µM | OVCAR-8 > 100 µM | HL-60 > 100 µM | SF-295 40 µM | U-251 > 100 µM | HCC 2998 > 100 µM | LOX IMVI > 100 µM | SNB-75 27.5 µM | EKVX > 100 µM | OVCAR-3 > 100 µM | UO-31 > 100 µM | RPMI-8226 > 100 µM | TK-10 56 µM

C/C(CC(=O)Nc1cccc([N+](=O)[O-])c1)=N\NC(=O)CC#N
inactive: UACC-257 > 100 µM | NCI-H23 > 100 µM | SF-268 > 100 µM | K562 > 100 µM | OVCAR-8 > 100 µM | HL-60 > 100 µM | SF-295 > 100 µM | U-251 > 100 µM | HCC 2998 > 100 µM | LOX IMVI > 100 µM | SNB-75 > 100 µM | EKVX > 100 µM | OVCAR-3 > 100 µM | COLO 205 > 100 µM | UO-31 > 100 µM | RPMI-8226 > 100 µM | TK-10 > 100 µM

Cc1cc(C)nc(NS(=O)(=O)c2ccc(NC(=O)COC(=O)c3cccc4c(=O)c5ccccc5[nH]c34)cc2)n1
inactive: UACC-257 27.1 µM | OVCAR-4 49.1 µM | NCI-H23 29.7 µM | SF-268 37.7 µM | K562 32 µM | OVCAR-8 32.1 µM | HL-60 26.9 µM | SF-295 33.7 µM | U-251 20 µM | HCC 2998 21.1 µM | LOX IMVI 20.5 µM | SNB-75 31 µM | EKVX 54.2 µM | OVCAR-3 23.6 µM | COLO 205 48.8 µM | UO-31 61.9 µM | RPMI-8226 35.7 µM | TK-10 76.4 µM

c1ccc2c(c1)[nH]c1c2ncc2[nH]c3ccccc3c21
inactive: UACC-257 > 10 µM | OVCAR-4 1.9 µM | NCI-H23 10.4 µM | SF-268 6.32 µM | K562 2.55 µM | OVCAR-8 3.23 µM | HL-60 2 µM | SF-295 3.58 µM | U-251 2.43 µM | HCC 2998 2.64 µM | LOX IMVI 1.94 µM | SNB-75 3.52 µM | EKVX 12.9 µM | OVCAR-3 2.54 µM | COLO 205 2.45 µM | UO-31 4.05 µM | RPMI-8226 2.26 µM | TK-10 7.33 µM

O=c1[nH]c(=O)n(C2OC(CO)C(O)C2O)cc1OCCCc1ccccc1 (configuration not stated)
inactive: UACC-257 > 100 µM | OVCAR-4 > 100 µM | NCI-H23 > 100 µM | SF-268 > 100 µM | OVCAR-8 > 100 µM | HL-60 > 100 µM | SF-295 > 100 µM | HCC 2998 > 100 µM | LOX IMVI > 100 µM | EKVX > 100 µM | MDA-N > 100 µM | OVCAR-3 > 100 µM | COLO 205 > 100 µM | TK-10 > 100 µM

O=C1CCCCCCCCCCC1CN1CCCCC1 (configuration not stated)
inactive: UACC-257 70.6 µM | OVCAR-4 > 100 µM | NCI-H23 26.9 µM | SF-268 > 100 µM | K562 94.4 µM | OVCAR-8 > 100 µM | HL-60 87.1 µM | SF-295 46.9 µM | U-251 75.3 µM | HCC 2998 > 100 µM | LOX IMVI 70.6 µM | SNB-75 39.1 µM | EKVX > 100 µM | OVCAR-3 > 100 µM | COLO 205 41.4 µM | UO-31 39 µM | RPMI-8226 > 100 µM | TK-10 38.4 µM

CC(=O)OC1CC[C@@]2(C)C(CC(OC3OC(CO)C(O)C(O)C3O)[C@]3(C)C2CCC24CC23CC[C@H]4C(C)CC(O)[C@@H](O)C(C)(C)O)C1(C)C (some centres not stated)
inactive: UACC-257 11.7 µM | OVCAR-4 > 50 µM | NCI-H23 > 50 µM | SF-268 18.4 µM | K562 15.4 µM | OVCAR-8 19.9 µM | HL-60 11.6 µM | SF-295 22.4 µM | U-251 9.71 µM | HCC 2998 11.7 µM | LOX IMVI 8.61 µM | SNB-75 11.4 µM | EKVX 16.3 µM | OVCAR-3 16.5 µM | COLO 205 9.4 µM | UO-31 > 50 µM | RPMI-8226 10.3 µM | TK-10 22.9 µM

CCCCNC(=O)Cn1c2ccc(Br)cc2c2nc3ccccc3nc21
inactive: UACC-257 > 100 µM | NCI-H23 > 100 µM | SF-268 97.1 µM | K562 > 100 µM | OVCAR-8 33.3 µM | SF-295 > 100 µM | U-251 > 100 µM | LOX IMVI > 100 µM | SNB-75 51.9 µM | MDA-N > 100 µM | OVCAR-3 > 100 µM | COLO 205 > 100 µM | UO-31 > 100 µM | RPMI-8226 > 100 µM | TK-10 > 100 µM

NCCC(=O)NC(Cc1c[nH]cn1)C(=O)O (configuration not stated)
inactive: UACC-257 > 100 µM | OVCAR-4 > 100 µM | NCI-H23 > 100 µM | SF-268 > 100 µM | K562 > 100 µM | OVCAR-8 > 100 µM | HL-60 > 100 µM | SF-295 > 100 µM | U-251 > 100 µM | HCC 2998 > 100 µM | LOX IMVI > 100 µM | SNB-75 > 100 µM | EKVX > 100 µM | MDA-N > 100 µM | OVCAR-3 > 100 µM | COLO 205 > 100 µM | UO-31 > 100 µM | RPMI-8226 > 100 µM | TK-10 > 100 µM

O=S1(=O)C[C@@H](O)[C@H](O)CS1
inactive: UACC-257 > 100 µM | OVCAR-4 > 100 µM | NCI-H23 > 100 µM | SF-268 > 100 µM | K562 > 100 µM | OVCAR-8 > 100 µM | HL-60 > 100 µM | SF-295 > 100 µM | U-251 > 100 µM | HCC 2998 > 100 µM | LOX IMVI > 100 µM | SNB-75 > 100 µM | EKVX > 100 µM | OVCAR-3 > 100 µM | COLO 205 > 100 µM | UO-31 > 100 µM | RPMI-8226 > 100 µM | TK-10 > 100 µM

COc1ccc(C(=O)NCCC2CN(S(=O)(=O)C(F)(F)F)c3ccccc32)c(OC)c1 (configuration not stated)
inactive: UACC-257 40.8 µM | OVCAR-4 69.3 µM | NCI-H23 32.8 µM | K562 28.3 µM | SF-295 68.9 µM | U-251 30.3 µM | HCC 2998 60.4 µM | EKVX 39 µM | MDA-N 33.2 µM | OVCAR-3 51.4 µM | COLO 205 34.5 µM | UO-31 43 µM | RPMI-8226 26.8 µM

O=C(Cc1nc2ccc(C(=O)c3ccccc3)cc2nc1O)C(=O)Nc1ccc(C(F)(F)F)cc1[N+](=O)[O-]
inactive: UACC-257 > 100 µM | OVCAR-4 > 100 µM | NCI-H23 75 µM | SF-268 65 µM | K562 27.6 µM | OVCAR-8 69 µM | HL-60 31.6 µM | SF-295 94.2 µM | U-251 > 100 µM | HCC 2998 > 100 µM | LOX IMVI 39.4 µM | SNB-75 45.9 µM | EKVX 11.7 µM | OVCAR-3 38.7 µM | COLO 205 45 µM | UO-31 61.2 µM | RPMI-8226 42.5 µM | TK-10 > 100 µM

C=CC1(c2ccc(Br)cc2)OCCCO1
inactive: UACC-257 > 100 µM | OVCAR-4 > 100 µM | NCI-H23 > 100 µM | SF-268 > 100 µM | K562 > 100 µM | OVCAR-8 > 100 µM | HL-60 > 100 µM | SF-295 > 100 µM | U-251 > 100 µM | HCC 2998 > 100 µM | LOX IMVI > 100 µM | SNB-75 > 100 µM | EKVX > 100 µM | MDA-N > 100 µM | OVCAR-3 > 100 µM | COLO 205 > 100 µM | UO-31 > 100 µM | RPMI-8226 > 100 µM | TK-10 > 100 µM

Clc1ccc(Cl)c2[s+]snc12
inactive: UACC-257 > 93.3 µM | OVCAR-4 > 100 µM | NCI-H23 > 100 µM | SF-268 46.8 µM | K562 > 45.8 µM | OVCAR-8 40.3 µM | HL-60 50.7 µM | SF-295 > 76.6 µM | U-251 38.6 µM | HCC 2998 > 100 µM | LOX IMVI 31 µM | SNB-75 41.2 µM | EKVX > 100 µM | OVCAR-3 > 63.5 µM | COLO 205 > 43.1 µM | UO-31 > 100 µM | RPMI-8226 > 48.6 µM | TK-10 > 100 µM

CC1CN=C(N(Cc2ccc(F)cc2)C(=O)Nc2ccc(Cl)cc2)S1 (configuration not stated)
inactive: UACC-257 45.9 µM | OVCAR-4 13.3 µM | NCI-H23 26.9 µM | SF-268 21.4 µM | K562 9.23 µM | OVCAR-8 30.1 µM | HL-60 17.5 µM | SF-295 27.7 µM | U-251 32.4 µM | HCC 2998 23.2 µM | LOX IMVI 16.1 µM | SNB-75 18.2 µM | EKVX 16.2 µM | MDA-N 11.7 µM | OVCAR-3 20.2 µM | COLO 205 30.3 µM | UO-31 35.2 µM | RPMI-8226 43.4 µM | TK-10 21.8 µM

N#COc1ccc(Oc2ccc(OC#N)cc2)cc1
inactive: UACC-257 > 100 µM | OVCAR-4 > 100 µM | NCI-H23 70.5 µM | SF-268 > 100 µM | K562 36.7 µM | OVCAR-8 > 100 µM | HL-60 46.3 µM | SF-295 98.4 µM | U-251 85.7 µM | HCC 2998 > 100 µM | LOX IMVI 19.3 µM | SNB-75 93.5 µM | EKVX > 100 µM | OVCAR-3 > 100 µM | COLO 205 22.4 µM | UO-31 89.7 µM | RPMI-8226 32 µM | TK-10 > 100 µM
